Measured values: the OligoGym collection
Several values for one entry are separate records, joined by “and”; a condition that tells them apart may be missing. Equal values may be shown once. After the bases stand the sugars from the 5' end (letter, count) and the backbone: PS all phosphorothioate, else s phosphorothioate and o phosphodiester by linkage. Methylation of C is not given here. e = 2'-O-(2-methoxyethyl) (MOE); k = constrained ethyl (cEt); d = 2'-deoxy (DNA)

Molecular target: IRF4
Settings: ASO

Sequence: TCCTTTGGGTGCTTTC (sugars k3 d10 k3, PS)
- target mRNA inhibition (SK-MEL-28, 4 µM): 32%

Sequence: TCGAATCTGCCCAAAG (sugars k3 d10 k3, PS)
- target mRNA inhibition (MM.1R, 1 µM): 23%

Sequence: TCGCAGGCAGTTGTGC (sugars k3 d10 k3, PS)
- target mRNA inhibition (SK-MEL-28, 4 µM): -20%

Sequence: TCGCGCAAAGGGCAAG (sugars k3 d10 k3, PS)
- target mRNA inhibition (MM.1R, 1 µM): -4%

Sequence: TCTAACCCTAATCCTA (sugars k3 d10 k3, PS)
- target mRNA inhibition (SK-MEL-28, 4 µM): 5%

Sequence: TCTACTGGAGTCAAGC (sugars k3 d10 k3, PS)
- target mRNA inhibition (MM.1R, 1 µM): 30%

Sequence: TCTAGTTTGCCAATTC (sugars k3 d10 k3, PS)
- target mRNA inhibition (SK-MEL-28, 4 µM): 62%

Sequence: TCTATAGTGTTCCAGG (sugars k3 d10 k3, PS)
- target mRNA inhibition (SK-MEL-28, 4 µM): 80%

Sequence: TCTATAGTGTTCCAGG (sugars kkdddddddddkdkdk, PS)
- target mRNA inhibition (MM.1R, 0.074 µM): 22%
- target mRNA inhibition (MM.1R, 0.222 µM): 28%
- target mRNA inhibition (MM.1R, 0.666 µM): 45%
- target mRNA inhibition (MM.1R, 1 µM): 50%
- target mRNA inhibition (MM.1R, 2 µM): 72%

Sequence: TCTATAGTGTTCCAGG (sugars kkdddddddddkekek, PS)
- target mRNA inhibition (MM.1R, 1 µM): 28%

Sequence: TCTATAGTGTTCCAGG (sugars kkkdddddddddkeke, PS)
- target mRNA inhibition (MM.1R, 0.074 µM): 22%
- target mRNA inhibition (MM.1R, 0.222 µM): 34%
- target mRNA inhibition (MM.1R, 0.666 µM): 56%
- target mRNA inhibition (MM.1R, 1 µM): 68%
- target mRNA inhibition (MM.1R, 2 µM): 81%

Sequence: TCTATAGTGTTCCAGG (sugars kkkddddddddkekek, PS)
- target mRNA inhibition (MM.1R, 1 µM): 13%

Sequence: TCTCAGCAAAACGCAG (sugars k3 d10 k3, PS)
- target mRNA inhibition (SK-MEL-28, 4 µM): 27%

Sequence: TCTCCCACACCAGCCC (sugars k3 d10 k3, PS)
- target mRNA inhibition (SK-MEL-28, 4 µM): 6%

Sequence: TCTCTCCAGTTTGTTG (sugars k3 d10 k3, PS)
- target mRNA inhibition (SK-MEL-28, 4 µM): 14%

Sequence: TCTGAGTAGACTTCTT (sugars k3 d10 k3, PS)
- target mRNA inhibition (MM.1R, 1 µM): 14%

Sequence: TCTGAGTGAGCTTGCC (sugars k3 d10 k3, PS)
- target mRNA inhibition (SK-MEL-28, 4 µM): 49%

Sequence: TCTGGCTAGCAGAGGT (sugars k3 d10 k3, PS)
- target mRNA inhibition (MM.1R, 1 µM): 26%

Sequence: TCTTACAGCAATCTTA (sugars k3 d10 k3, PS)
- target mRNA inhibition (SK-MEL-28, 4 µM): 32%

Sequence: TCTTCTGGATTGCTGA (sugars k3 d10 k3, PS)
- target mRNA inhibition (MM.1R, 1 µM): 20%

Sequence: TCTTGTGGACACTTTT (sugars k3 d10 k3, PS)
- target mRNA inhibition (SK-MEL-28, 4 µM): 65%

Sequence: TGAAACTGAGAGTGCG (sugars k3 d10 k3, PS)
- target mRNA inhibition (SK-MEL-28, 4 µM): 19%

Sequence: TGAAATGGAGCATCCG (sugars k3 d10 k3, PS)
- target mRNA inhibition (SK-MEL-28, 4 µM): 9%

Sequence: TGAGATAAGAAGCACT (sugars k3 d10 k3, PS)
- target mRNA inhibition (SK-MEL-28, 4 µM): 20%

Sequence: TGAGATAGGAAGCACT (sugars k3 d10 k3, PS)
- target mRNA inhibition (SK-MEL-28, 4 µM): 38%

Sequence: TGAGCACTCTTACTCC (sugars k3 d10 k3, PS)
- target mRNA inhibition (MM.1R, 1 µM): -6%

Sequence: TGATAGCTGAGCTGAT (sugars k2 d9 e3 k2, PS)
- target mRNA inhibition (MM.1R, 1 µM): -2%

Sequence: TGATAGCTGAGCTGAT (sugars kdddddddddkekeke, PS)
- target mRNA inhibition (MM.1R, 1 µM): 17%

Sequence: TGATAGCTGAGCTGAT (sugars kkdddddddddekeke, PS)
- target mRNA inhibition (MM.1R, 1 µM): 15%

Sequence: TGATAGCTGAGCTGAT (sugars kkdddddddddkdkdk, PS)
- target mRNA inhibition (MM.1R, 1 µM): -22%

Sequence: TGATAGGTATACTTAA (sugars k3 d10 k3, PS)
- target mRNA inhibition (SK-MEL-28, 4 µM): 28%

Sequence: TGATATTAGAGACTGT (sugars k3 d10 k3, PS)
- target mRNA inhibition (SK-MEL-28, 4 µM): 60%

Sequence: TGCAAAATAGTCACTC (sugars k3 d10 k3, PS)
- target mRNA inhibition (SK-MEL-28, 4 µM): 48%

Sequence: TGCAAACGACAAGTGG (sugars k3 d10 k3, PS)
- target mRNA inhibition (SK-MEL-28, 4 µM): 21%

Sequence: TGCAAGATGACTCCAT (sugars k3 d10 k3, PS)
- target mRNA inhibition (SK-MEL-28, 4 µM): 57%

Sequence: TGCAGCACCGTGGTGC (sugars k3 d10 k3, PS)
- target mRNA inhibition (MM.1R, 1 µM): -1%

Sequence: TGCATGAGGGTGACAC (sugars k3 d10 k3, PS)
- target mRNA inhibition (SK-MEL-28, 4 µM): 45%

Sequence: TGCCAGAGGGCAAGAT (sugars k3 d10 k3, PS)
- target mRNA inhibition (SK-MEL-28, 4 µM): 2%

Sequence: TGCCAGTGGTGGCCGC (sugars k3 d10 k3, PS)
- target mRNA inhibition (SK-MEL-28, 4 µM): 30%

Sequence: TGCCATGGACAAGTTT (sugars k3 d10 k3, PS)
- target mRNA inhibition (MM.1R, 1 µM): -18%

Sequence: TGCCGAGATATAAATA (sugars k3 d10 k3, PS)
- target mRNA inhibition (SK-MEL-28, 4 µM): 23%

Sequence: TGCCGTGTCAGGGTCG (sugars k3 d10 k3, PS)
- target mRNA inhibition (SK-MEL-28, 4 µM): 11%

Sequence: TGCCTGAACTGTGTAA (sugars k3 d10 k3, PS)
- target mRNA inhibition (SK-MEL-28, 4 µM): 35%

Sequence: TGCGAGTACCCAAGAC (sugars k3 d10 k3, PS)
- target mRNA inhibition (SK-MEL-28, 4 µM): 59%

Sequence: TGCGGAGGTTCCTTGA (sugars k3 d10 k3, PS)
- target mRNA inhibition (MM.1R, 1 µM): 12%

Sequence: TGCGGCTCCGGCGACG (sugars k3 d10 k3, PS)
- target mRNA inhibition (MM.1R, 1 µM): -20%

Sequence: TGCTATTAAACTGATT (sugars k3 d10 k3, PS)
- target mRNA inhibition (MM.1R, 1 µM): -3%

Sequence: TGCTGATCCTGGGAGT (sugars k3 d10 k3, PS)
- target mRNA inhibition (SK-MEL-28, 4 µM): 79%

Sequence: TGCTGCAAATCCCTCT (sugars k3 d10 k3, PS)
- target mRNA inhibition (MM.1R, 1 µM): 21%

Sequence: TGCTTATCAATGCCAA (sugars k3 d10 k3, PS)
- target mRNA inhibition (MM.1R, 0.074 µM): 12%
- target mRNA inhibition (MM.1R, 0.222 µM): 12%
- target mRNA inhibition (MM.1R, 0.666 µM): 16%
- target mRNA inhibition (MM.1R, 1 µM): 35% and 31%
- target mRNA inhibition (MM.1R, 2 µM): 50%
- target mRNA inhibition (MM.1R, 4 µM): 69% and 66%
- target mRNA inhibition (SK-MEL-28, 4 µM): 70%
